Laboratory results: US20150197536A1, “COMPOUNDS REDUCING THE PRODUCTION OF SORBITOL IN THE EYE AND METHODS OF USING THE SAME” (THE REGENTS OF THE UNIVERSITY OF COLORADO, a body corporate, priority 2012, published 2015)

Tests used:
[1] = tested on: lenses of PAR40 transgenic mice that express human AKR1B1; experiment: Sorbitol accumulation in lenses of PAR40 transgenic mice cultured ex vivo; format: cell-based; details: PAR40 transgenic mice expressing human AKR1B1; hyperglycemic conditions; lenses excised and cultured ex vivo; FIG. 4B/5B
AKR1A1 = target: T1, AKR1A1 (Homo sapiens, UniProt P14550); experiment: Aldo keto reductase specificity, AKR1A1; format: biochemical; details: FIG. 3B; result in words
T1 sequence (P14550 1-325): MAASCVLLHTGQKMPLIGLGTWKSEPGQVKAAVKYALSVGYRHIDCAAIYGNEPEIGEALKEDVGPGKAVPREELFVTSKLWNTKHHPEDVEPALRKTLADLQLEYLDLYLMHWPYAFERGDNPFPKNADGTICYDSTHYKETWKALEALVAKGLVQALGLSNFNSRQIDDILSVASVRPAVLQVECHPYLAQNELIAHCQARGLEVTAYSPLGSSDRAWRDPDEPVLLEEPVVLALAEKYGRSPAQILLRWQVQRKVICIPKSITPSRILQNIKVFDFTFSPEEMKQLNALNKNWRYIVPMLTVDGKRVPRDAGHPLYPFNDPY

[2] = tested on: Raw264.7 murine macrophages; experiment: Sorbitol accumulation in Raw264.7 murine macrophages; format: cell-based; details: FIG. 4A/5A
AKR1B10 = AKR1B10 (Homo sapiens, UniProt O60218); experiment: Aldo keto reductase specificity, AKR1B10; format: biochemical; details: FIG. 3B; result in words
diabetic cataracts = details: active ingredient of gooseberry extracts; Puppala et al. 2012; cited from earlier work

AKR1B10, sequence (O60218 whole entry, species assumed): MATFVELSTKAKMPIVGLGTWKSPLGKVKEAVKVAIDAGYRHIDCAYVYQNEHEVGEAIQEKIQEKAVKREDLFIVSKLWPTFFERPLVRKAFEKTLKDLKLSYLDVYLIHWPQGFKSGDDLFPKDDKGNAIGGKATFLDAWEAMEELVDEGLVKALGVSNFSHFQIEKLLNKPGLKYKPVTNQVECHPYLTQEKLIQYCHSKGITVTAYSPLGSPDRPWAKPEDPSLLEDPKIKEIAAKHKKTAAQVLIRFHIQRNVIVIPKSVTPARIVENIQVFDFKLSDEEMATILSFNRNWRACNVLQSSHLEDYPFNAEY

Row | SMILES | sorbitol accumulation [1] | specificity for AKR1B1 over AKR1A1 (AKR1A1) | sorbitol accumulation [2] | specificity for AKR1B1 over AKR1B10 (AKR1B10) | efficacy in slowing the progression of diabetic cataracts (diabetic cataracts)
1 | O=C(N[C@@H]1O[C@H](CO)[C@@H](O)[C@H](O)[C@H]1O)c1cc(O)c(O)c(O)c1 [BGA, 1-deoxy-1-(3,4,5-trihydroxybenzamido)-β-D-glucopyranose] | blocks sorbitol accumulation | displays specificity for AKR1B1 over other aldo keto reductase enzymes | blocks sorbitol accumulation | displays specificity for AKR1B1 over other aldo keto reductase enzymes | 
2 | O=C(O[C@@H]1O[C@H](CO)[C@@H](O)[C@H](O)[C@H]1O)c1cc(O)c(O)c(O)c1 [BGG, 1-O-(3,4,5-trihydroxybenzoyl)-β-D-glucopyranose] |  |  |  |  | efficacy in slowing the progression of diabetic cataracts
